From patent US6534524B1, “Indazole compounds and pharmaceutical compositions for inhibiting protein kinases, and methods for their use” (Agouron Pharmaceuticals, Inc., priority 1999, dated 2003)
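Wherever % inhibition of the proliferation of HUVEC is given: relative to VEGF-stimulated control minus starvation-medium baseline.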

These compounds were tested on human umbilical vein endothelial cells (HUVEC) (assay: HUVEC proliferation assay (VEGF-stimulated, MTT)). Settings: Library I, Y = CO; nominal concentration of 10 nM; crude reaction mixtures.
Format: cell-based
Method: HUVEC Proliferation Assay
This assay determines the ability of a test compound to inhibit the growth factor-stimulated proliferation of human umbilical vein endothelial cells (“HUVEC”). HUVEC cells (passage 3-4, Clonetics, Corp.) were thawed into EGM2 culture medium (Clonetics Corp) in T75 flasks. Fresh EGM2 medium was added to the flasks 24 hours later. Four or five days later, cells were exposed to another culture medium (F12K medium supplemented with 10% fetal bovine serum (FBS), 60 μg/mL endothelial cell growth supplement (ECGS), and 0.1 mg/mL heparin). Exponentially-growing HUVEC cells were used in experiments thereafter. Ten to twelve thousand HUVEC cells were plated in 96-well dishes in 100 μl of rich, culture medium (described above). The cells were allowed to attach for 24 hours in this medium. The medium was then removed by aspiration and 105 μl of starvation media (F12K+1% FBS) was added to each well. After 24 hours, 15 μl of test agent dissolved in 1% DMSO in starvation medium or this vehicle alone was added into each treatment well; the final DMSO concentration was 0.1%. One hour later, 30 μl of VEGF (30 ng/mL) in starvation media was added to all wells except those containing untreated controls; the final VEGF concentration was 6 ng/mL. Cellular proliferation was quantified 72 hours later by MTT dye reduction, at which time cells were exposed for 4 hours MTT (Promega Corp.).
For screening compound library plates, one or two concentrations (one well per concentration) were employed, and the % inhibition was calculated by the following formula:
% inhibition=(control−test)÷(control−starvation)
% inhibition=(control-treated)/(control-starvation)×100
In the case of O=C(Nc1ccc2cn[nH]c2c1)c1ccc2c(-c3nc4ccccc4[nH]3)n[nH]c2c1, the “% inhibition of the proliferation of HUVEC” value (“% inhibition … of HUVEC” for short) is reported as 0%.
In the case of CN(CCO)C(=O)c1ccc2c(-c3nc4ccccc4[nH]3)n[nH]c2c1, the “% inhibition … of HUVEC” value is reported as 27%.
In the case of C=CCN1CCN(C(=O)c2ccc3c(-c4nc5ccccc5[nH]4)n[nH]c3c2)CC1, the “% inhibition … of HUVEC” value is reported as 39%.

Same assay, conditions: Library I, Y = NH; nominal concentration of 10 nM; crude reaction mixtures
In the case of O=C(Nc1ccc2cn[nH]c2c1)c1ccc2c(-c3nc4ccccc4[nH]3)n[nH]c2c1, the “% inhibition … of HUVEC” value is reported as 2%.
With CN(CCO)C(=O)c1ccc2c(-c3nc4ccccc4[nH]3)n[nH]c2c1 the “% inhibition … of HUVEC” value was −8%.
C=CCN1CCN(C(=O)c2ccc3c(-c4nc5ccccc5[nH]4)n[nH]c3c2)CC1 was tested, and the “% inhibition … of HUVEC” value was −4%.

Same assay, conditions: Library I, Y = O; nominal concentration of 10 nM; crude reaction mixtures
For O=C(Nc1ccc2cn[nH]c2c1)c1ccc2c(-c3nc4ccccc4[nH]3)n[nH]c2c1, the “% inhibition … of HUVEC” value was 4%.
CN(CCO)C(=O)c1ccc2c(-c3nc4ccccc4[nH]3)n[nH]c2c1 was tested, and the “% inhibition … of HUVEC” value was 48%.

Same assay, conditions: Library II, Y=S; 0.5 mM (column head; text: nominal 0.5 nM); crude reaction mixtures
For CC1CCC(NC(=O)c2ccccc2Sc2ccc3c(/C=C/c4ccccn4)n[nH]c3c2)CC1 (stereo not shown), the “% inhibition … of HUVEC” value was −11%.
Cc1csc(NC(=O)c2ccccc2Sc2ccc3c(/C=C/c4ccccn4)n[nH]c3c2)n1 was tested, and the “% inhibition … of HUVEC” value was 15%.
For CCCCCCNC(=O)c1ccccc1Sc1ccc2c(/C=C/c3ccccn3)n[nH]c2c1, the “% inhibition … of HUVEC” value was 21%.
With COC(CNC(=O)c1ccccc1Sc1ccc2c(/C=C/c3ccccn3)n[nH]c2c1)OC the “% inhibition … of HUVEC” value was 47%.
With CC(C)CCNC(=O)c1ccccc1Sc1ccc2c(/C=C/c3ccccn3)n[nH]c2c1 [drawing 614] the “% inhibition … of HUVEC” value was 14%.
For CC(C)(CO)CNC(=O)c1ccccc1Sc1ccc2c(/C=C/c3ccccn3)n[nH]c2c1, the “% inhibition … of HUVEC” value was 8%.
In the case of CC(C)CCC(C)NC(=O)c1ccccc1Sc1ccc2c(/C=C/c3ccccn3)n[nH]c2c1 (stereo not shown), the “% inhibition … of HUVEC” value is reported as 6%.
With CCCCCC(C)NC(=O)c1ccccc1Sc1ccc2c(/C=C/c3ccccn3)n[nH]c2c1 (stereo not shown) the “% inhibition … of HUVEC” value was −1%.
For O=C(NCC1CC1)c1ccccc1Sc1ccc2c(/C=C/c3ccccn3)n[nH]c2c1 [drawing 758], the “% inhibition … of HUVEC” value was 35%.
For O=C(NC1CCSC1=O)c1ccccc1Sc1ccc2c(/C=C/c3ccccn3)n[nH]c2c1 (stereo not shown) [drawing 785], the “% inhibition … of HUVEC” value was 25%.
In the case of O=C(O)CNC(=O)CCNC(=O)c1ccccc1Sc1ccc2c(/C=C/c3ccccn3)n[nH]c2c1, the “% inhibition … of HUVEC” value is reported as 49%.

Same assay, conditions: Library II, Y=S; 2 mM (column head; text: nominal 2 nM); crude reaction mixtures
With CC1CCC(NC(=O)c2ccccc2Sc2ccc3c(/C=C/c4ccccn4)n[nH]c3c2)CC1 (stereo not shown) the “% inhibition … of HUVEC” value was 42%.
With Cc1csc(NC(=O)c2ccccc2Sc2ccc3c(/C=C/c4ccccn4)n[nH]c3c2)n1 the “% inhibition … of HUVEC” value was 95%.
CCCCCCNC(=O)c1ccccc1Sc1ccc2c(/C=C/c3ccccn3)n[nH]c2c1 was tested, and the “% inhibition … of HUVEC” value was 90%.
With COC(CNC(=O)c1ccccc1Sc1ccc2c(/C=C/c3ccccn3)n[nH]c2c1)OC the “% inhibition … of HUVEC” value was 89%.
For CC(C)CCNC(=O)c1ccccc1Sc1ccc2c(/C=C/c3ccccn3)n[nH]c2c1 [drawing 614], the “% inhibition … of HUVEC” value was 55%.
CC(C)(CO)CNC(=O)c1ccccc1Sc1ccc2c(/C=C/c3ccccn3)n[nH]c2c1 was tested, and the “% inhibition … of HUVEC” value was 22%.
In the case of CC(C)CCC(C)NC(=O)c1ccccc1Sc1ccc2c(/C=C/c3ccccn3)n[nH]c2c1 (stereo not shown), the “% inhibition … of HUVEC” value is reported as 44%.
With CCCCCC(C)NC(=O)c1ccccc1Sc1ccc2c(/C=C/c3ccccn3)n[nH]c2c1 (stereo not shown) the “% inhibition … of HUVEC” value was 14%.
With O=C(NCC1CC1)c1ccccc1Sc1ccc2c(/C=C/c3ccccn3)n[nH]c2c1 [drawing 758] the “% inhibition … of HUVEC” value was 69%.
With O=C(NC1CCSC1=O)c1ccccc1Sc1ccc2c(/C=C/c3ccccn3)n[nH]c2c1 (stereo not shown) [drawing 785] the “% inhibition … of HUVEC” value was 40%.
In the case of O=C(O)CNC(=O)CCNC(=O)c1ccccc1Sc1ccc2c(/C=C/c3ccccn3)n[nH]c2c1, the “% inhibition … of HUVEC” value is reported as −9%.

Same assay, conditions: Library III; HUVEC proliferation; nominal concentration of 0.5 nM; crude reaction mixtures
O=C(Nc1ccccc1-c1ccccc1)c1ccccc1Sc1ccc2c(/C=C/c3ccccn3)n[nH]c2c1 was tested, and the “% inhibition” value was 1%.
For C#CC1(NC(=O)c2ccccc2Sc2ccc3c(/C=C/c4ccccn4)n[nH]c3c2)CCCCC1, the “% inhibition” value was 3%.
With Cc1ccnc(NC(=O)c2ccccc2Sc2ccc3c(/C=C/c4ccccn4)n[nH]c3c2)c1 the “% inhibition” value was −6%.
In the case of CCSCCNC(=O)c1ccccc1Sc1ccc2c(/C=C/c3ccccn3)n[nH]c2c1, the “% inhibition” value is reported as 7%.
For O=C(Nc1ccc2cccc(O)c2n1)c1ccccc1Sc1ccc2c(/C=C/c3ccccn3)n[nH]c2c1, the “% inhibition” value was 33%.
With CCCCCc1ccc(NC(=O)c2ccccc2Sc2ccc3c(/C=C/c4ccccn4)n[nH]c3c2)cc1 the “% inhibition” value was 13%.
In the case of O=C(N[C@H]1CC[C@H](O)CC1)c1ccccc1Sc1ccc2c(/C=C/c3ccccn3)n[nH]c2c1, the “% inhibition” value is reported as 18%.
In the case of O=C(NCc1ccc(F)c(F)c1)c1ccccc1Sc1ccc2c(/C=C/c3ccccn3)n[nH]c2c1, the “% inhibition” value is reported as 0%.
With Cc1c(O)ccc(NC(=O)c2ccccc2Sc2ccc3c(/C=C/c4ccccn4)n[nH]c3c2)c1C the “% inhibition” value was 4%.
C[n+]1ccc(NC(=O)c2ccccc2Sc2ccc3c(/C=C/c4ccccn4)n[nH]c3c2)cc1 was tested, and the “% inhibition” value was 0%.
COC(=O)c1ccc(NC(=O)c2ccccc2Sc2ccc3c(/C=C/c4ccccn4)n[nH]c3c2)c(C)c1 was tested, and the “% inhibition” value was −46%.
With O=C(Nc1nc(Cl)ncc1F)c1ccccc1Sc1ccc2c(/C=C/c3ccccn3)n[nH]c2c1 the “% inhibition” value was 11%.
In the case of O=C(Nc1cccc(CO)c1)c1ccccc1Sc1ccc2c(/C=C/c3ccccn3)n[nH]c2c1, the “% inhibition” value is reported as 14%.
For Cc1ccc(O)c(NC(=O)c2ccccc2Sc2ccc3c(/C=C/c4ccccn4)n[nH]c3c2)c1, the “% inhibition” value was −1%.
With COc1ccc(Cl)cc1NC(=O)c1ccccc1Sc1ccc2c(/C=C/c3ccccn3)n[nH]c2c1 the “% inhibition” value was −4%.
With CC(C)(C)C(CO)NC(=O)c1ccccc1Sc1ccc2c(C=Cc3ccccn3)n[nH]c2c1 (stereo not shown) the “% inhibition” value was −7%.
With O=C(Nc1ccc(F)cc1)c1ccccc1Sc1ccc2c(/C=C/c3ccccn3)n[nH]c2c1 the “% inhibition” value was −1%.
With Cc1ccc(NC(=O)c2ccccc2Sc2ccc3c(/C=C/c4ccccn4)n[nH]c3c2)cc1O the “% inhibition” value was 6%.
For CCOC(=O)N1CCC(NC(=O)c2ccccc2Sc2ccc3c(/C=C/c4ccccn4)n[nH]c3c2)CC1, the “% inhibition” value was −24%.
Cc1cccc(CNC(=O)c2ccccc2Sc2ccc3c(/C=C/c4ccccn4)n[nH]c3c2)c1C was tested, and the “% inhibition” value was 13%.
CC(C)(CO)NC(=O)c1ccccc1Sc1ccc2c(/C=C/c3ccccn3)n[nH]c2c1 was tested, and the “% inhibition” value was −2%.
With CC(=O)c1ccc(NC(=O)c2ccccc2Sc2ccc3c(/C=C/c4ccccn4)n[nH]c3c2)cc1 the “% inhibition” value was 6%.
CSc1cccc(NC(=O)c2ccccc2Sc2ccc3c(/C=C/c4ccccn4)n[nH]c3c2)c1 was tested, and the “% inhibition” value was 8%.
With COc1cc(NC(=O)c2ccccc2Sc2ccc3c(/C=C/c4ccccn4)n[nH]c3c2)cc(OC)c1 the “% inhibition” value was −60%.
With Cc1cccnc1NC(=O)c1ccccc1Sc1ccc2c(/C=C/c3ccccn3)n[nH]c2c1 the “% inhibition” value was −18%.
With CC(NC(=O)c1ccccc1Sc1ccc2c(/C=C/c3ccccn3)n[nH]c2c1)c1ccc(F)cc1 (stereo not shown) the “% inhibition” value was 2%.
NC(=O)c1ccccc1NC(=O)c1ccccc1Sc1ccc2c(/C=C/c3ccccn3)n[nH]c2c1 was tested, and the “% inhibition” value was 7%.
For O=C(Nc1ncnc2[nH]ncc12)c1ccccc1Sc1ccc2c(/C=C/c3ccccn3)n[nH]c2c1, the “% inhibition” value was 4%.
With Cc1cnc(CNC(=O)c2ccccc2Sc2ccc3c(/C=C/c4ccccn4)n[nH]c3c2)cn1 the “% inhibition” value was 6%.
O=C(Nc1cccc2cnccc12)c1ccccc1Sc1ccc2c(/C=C/c3ccccn3)n[nH]c2c1 was tested, and the “% inhibition” value was 1%.
O=C(Nc1cccc(-c2cc[nH]n2)c1)c1ccccc1Sc1ccc2c(/C=C/c3ccccn3)n[nH]c2c1 was tested, and the “% inhibition” value was −3%.
For CSc1ccc(NC(=O)c2ccccc2Sc2ccc3c(/C=C/c4ccccn4)n[nH]c3c2)cc1, the “% inhibition” value was −7%.
With O=C(Nc1cccc(Cl)c1)c1ccccc1Sc1ccc2c(/C=C/c3ccccn3)n[nH]c2c1 [drawing 1041] the “% inhibition” value was −15%.
In the case of Cc1ccc(NC(=O)c2ccccc2Sc2ccc3c(/C=C/c4ccccn4)n[nH]c3c2)c(C)c1, the “% inhibition” value is reported as 13%.
O=C(Nc1cccc(O)c1)c1ccccc1Sc1ccc2c(/C=C/c3ccccn3)n[nH]c2c1 was tested, and the “% inhibition” value was −6%.
In the case of COc1cccc(OC)c1CNC(=O)c1ccccc1Sc1ccc2c(/C=C/c3ccccn3)n[nH]c2c1, the “% inhibition” value is reported as −10%.
O=C(NC[C@H](O)c1ccccc1)c1ccccc1Sc1ccc2c(/C=C/c3ccccn3)n[nH]c2c1 was tested, and the “% inhibition” value was −34%.
CSc1ccccc1NC(=O)c1ccccc1Sc1ccc2c(/C=C/c3ccccn3)n[nH]c2c1 was tested, and the “% inhibition” value was −10%.
In the case of CC(C)(C)c1cc(NC(=O)c2ccccc2Sc2ccc3c(/C=C/c4ccccn4)n[nH]c3c2)n[nH]1, the “% inhibition” value is reported as −21%.
In the case of CC(C)(C)c1ccc(NC(=O)c2ccccc2Sc2ccc3c(/C=C/c4ccccn4)n[nH]c3c2)cc1, the “% inhibition” value is reported as −1%.
